Values of other authors, collected in patent US11094527B2, “Wet clean solutions to prevent pattern collapse” (INTERNATIONAL BUSINESS MACHINES CORPORATION, priority 2018, dated 2021).
Read-outs that look alike come from different tables or passages of the source.

What was measured:
[1] = not given; remark: listed apart in the source

Row | Compound | Surface tension (at about 20° C.) [mN/m] | Water solubility (in words) [1] | Water solubility ([1]; 20° C.) [g/100 mL] | Water solubility ([1]; temperature not given)
1 | Diethyl ether | 16.5 | low water solubility | 6.9 | –
2 | c1ccccc1 [Benzene] | <30 | – | – | –
3 | CC(C)O [Isopropyl alcohol, reference compound] | <30 | miscible in water | – | Miscible
